ChEMBL document CHEMBL1151084, “Synthesis and biological properties of quaternized N-methylation analogs of D-Arg-2-dermorphin tetrapeptide” (Bioorg Med Chem Lett, 1994)
Where a SMILES comes first, the peptide text is derived from it.

Assays:
Mu-type opioid receptor = Mu-type opioid receptor (Rattus norvegicus, UniProt P33535); assay: Binding affinity against mu-opioid receptor by using [3H]DAGO as radioligand in rat brain; type: tissue-based
Mus musculus [1] = assay: In vivo antinociceptive effect in mice by PBQ writhing test upon subcutaneous administration; Range is (0.88-1.56); type: functional; conditions: sc
Cavia porcellus = species: Cavia porcellus; assay: In vitro bioactivity on electrically induced smooth muscle contraction of guinea pig ileum by GPI assay; type: functional
[2] = molecular target: Delta-type opioid receptor (Rattus norvegicus, UniProt P33533); assay: Binding affinity against delta-opioid receptor by using [3H]DADLE as radioligand in rat brain; type: tissue-based
Mus musculus [3] = assay: In vivo antinociceptive effect in mice by PBQ writhing test upon subcutaneous administration; Range is (1.64-3.24); type: functional; conditions: sc
Mus musculus [4] = assay: In vivo antinociceptive effect in mice by PBQ writhing test upon subcutaneous administration: Range is (0.39-0.59); type: functional; conditions: sc
Mus musculus [5] = assay: In vivo antinociceptive effect in mice by PBQ writhing test upon subcutaneous administration; Range is (0.52-0.741); type: functional; conditions: sc

Chain of Mu-type opioid receptor (P33535 whole entry): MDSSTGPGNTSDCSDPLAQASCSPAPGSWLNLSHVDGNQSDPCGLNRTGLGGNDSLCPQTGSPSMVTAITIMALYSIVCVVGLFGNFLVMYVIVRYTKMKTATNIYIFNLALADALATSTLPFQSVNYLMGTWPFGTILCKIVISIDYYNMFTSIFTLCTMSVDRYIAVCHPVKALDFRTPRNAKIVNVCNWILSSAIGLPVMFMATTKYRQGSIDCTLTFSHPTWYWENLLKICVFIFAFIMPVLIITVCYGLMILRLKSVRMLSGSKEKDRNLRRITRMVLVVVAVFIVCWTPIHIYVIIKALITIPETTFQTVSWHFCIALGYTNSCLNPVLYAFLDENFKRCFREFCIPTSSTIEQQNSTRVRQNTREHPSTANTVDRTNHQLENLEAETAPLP
Chain of Delta-type opioid receptor (P33533 whole entry): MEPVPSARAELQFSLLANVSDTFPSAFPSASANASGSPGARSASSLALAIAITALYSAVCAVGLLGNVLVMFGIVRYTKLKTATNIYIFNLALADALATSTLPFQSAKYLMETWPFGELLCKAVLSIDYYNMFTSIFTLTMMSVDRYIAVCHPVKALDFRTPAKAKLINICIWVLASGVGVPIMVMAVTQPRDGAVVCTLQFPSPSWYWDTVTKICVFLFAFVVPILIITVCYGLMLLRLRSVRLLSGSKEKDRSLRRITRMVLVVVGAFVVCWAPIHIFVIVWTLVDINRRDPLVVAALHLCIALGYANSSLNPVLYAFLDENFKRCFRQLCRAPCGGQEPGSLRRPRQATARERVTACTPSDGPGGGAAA

SMILES	Ki (Mu-type opioid receptor) [µM]	ED50 (Mus musculus [1]) [mg/kg]	IC50 (Cavia porcellus) [µM]	Ki [2] [µM]	ED50 (Mus musculus [3]) [mg/kg]	ED50 (Mus musculus [4]) [mg/kg]	ED50 (Mus musculus [5]) [mg/kg]
C[N+](C)(C)CCCC[C@H](NC(=O)[C@H](Cc1ccccc1)NC(=O)[C@@H](CCCNC(=N)N)NC(=O)[C@@H](N)Cc1ccc(O)cc1)C(N)=O	0.00112	1.18	0.0919	3.55			
C[N+](C)(C)CC[C@H](NC(=O)[C@H](Cc1ccccc1)NC(=O)[C@H](CCCNC(=N)N)NC(=O)[C@H](Cc1ccc(O)cc1)[N+](C)(C)C)C(N)=O	1.3		3.12	> 100			
C[N+](C)(C)CC[C@H](NC(=O)[C@H](Cc1ccccc1)NC(=O)[C@H](CCCN=C(N)N)NC(=O)[C@@H](N)Cc1ccc(O)cc1)C(N)=O	0.00752		0.125	5.86			
C[N+](C)(C)CCC[C@H](NC(=O)[C@H](Cc1ccccc1)NC(=O)[C@@H](CCCN=C(N)N)NC(=O)[C@@H](N)Cc1ccc(O)cc1)C(N)=O	0.00235		0.13	0.45	2.3		
C[N+](C)(C)[C@@H](Cc1ccc(O)cc1)C(=O)N[C@H](CCCN=C(N)N)C(=O)N[C@@H](Cc1ccccc1)C(=O)N[C@@H](CCCN)C(N)=O	1.92		> 100	> 100			
NCCCC[C@H](NC(=O)[C@H](Cc1ccccc1)NC(=O)[C@@H](CCCN=C(N)N)NC(=O)[C@@H](N)Cc1ccc(O)cc1)C(N)=O	0.00038		0.0506	2.36		0.47	
C[N+](C)(C)[C@@H](Cc1ccc(O)cc1)C(=O)N[C@H](CCCN=C(N)N)C(=O)N[C@@H](Cc1ccccc1)C(=O)N[C@@H](CCCCN)C(N)=O	0.207		2.47	> 100			
NC(=O)[C@H](CCNC(=O)[C@H](Cc1ccccc1)NC(=O)[C@H](CCCN=C(N)N)NC(=O)[C@@H](N)Cc1ccc(O)cc1)NC(=O)[C@H](Cc1ccccc1)NC(=O)[C@H](CCCN=C(N)N)NC(=O)[C@@H](N)Cc1ccc(O)cc1 (HELM PEPTIDE1{Y.R.F.[Dab].[am]}|PEPTIDE2{Y.R.F}$PEPTIDE1,PEPTIDE2,4:R3-3:R2$$$V2.0)	0.00051		0.0142	0.497			0.61
